Experimental data reported in ChEMBL document CHEMBL1201862, “PubChem BioAssay data set” (2004).
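Results reflect a 48-hour exposure of cells in 96-well plates to compound at five concentrations. At the GI50, growth is halved.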 Active and inactive are the calls of the source. Rule as the data show it: active = GI50 up to about 1.1 µM and inactive = higher.

Columns and labels:
Experiment in all cases: NCI anticancer screen, dose series, 48 h
[1] = system: NCI-H226
[2] = system: SNB-19
[3] = system: SF-295
[4] = system: OVCAR-8
[5] = system: OVCAR-3
[6] = system: A549
[7] = system: K562
[8] = system: RXF 393
[9] = system: ACHN
[10] = system: LOX IMVI
[11] = system: U-251
[12] = system: COLO 205
[13] = system: UACC-257
[14] = system: SK-MEL-28
[15] = system: HOP-62
[16] = system: 786-0
[17] = system: NCI-H460
[18] = system: HCC 2998
[19] = system: SNB-78
[20] = system: HCT-15
[21] = system: SNB-75
[22] = system: HL-60
[23] = system: KM12
[24] = system: DLD-1
[25] = system: KM-20L2
[26] = system: DMS-273
[27] = system: SN12C
[28] = system: M19-MEL
[29] = system: HT-29
[30] = system: SF-539
[31] = system: UO-31
[32] = system: IGROV-1
[33] = system: RPMI-8226
[34] = system: SK-OV-3
[35] = system: Malme-3M
[36] = system: NCI-H522
[37] = system: TK-10
[38] = system: HCT-116
[39] = system: EKVX
[40] = system: NCI-H23
[41] = system: UACC-62
[42] = system: LXFL 529
[43] = system: CCRF-CEM
[44] = system: MOLT-4
[45] = system: SF-268
[46] = system: SW-620
[47] = system: DMS-114
[48] = system: M14
[49] = system: SR
[50] = system: CAKI-1
[51] = system: SK-MEL-2
[52] = system: HOP-92
[53] = system: OVCAR-4
[54] = system: OVCAR-5
[55] = system: MDA-N
[56] = system: SK-MEL-5
[57] = system: T47D
[58] = system: Hs-578T
[59] = system: BT-549
[60] = system: NCI/ADR-RES
[61] = system: MCF7
[62] = system: DU-145
[63] = system: XF498
[64] = system: PC-3
[65] = system: A498
[66] = system: MDA-MB-435
[67] = system: MDA-MB-231

## O=C1NC2C(CCO)CC=C[C@H]2c2cc3c(cc21)OCO3 (stereo not given in full)
[1]
  GI50: 75.3 µM (inactive)
[2]
  GI50: > 100 µM (inactive)
[3]
  GI50: > 100 µM (inactive)
[4]
  GI50: > 100 µM (inactive)
[5]
  GI50: > 100 µM (inactive)
[6]
  GI50: > 100 µM (inactive)
[7]
  GI50: > 100 µM (inactive)
[8]
  GI50: > 100 µM (inactive)
[9]
  GI50: > 100 µM (inactive)
[10]
  GI50: > 100 µM (inactive)
[11]
  GI50: > 100 µM (inactive)
[12]
  GI50: > 100 µM (inactive)
[13]
  GI50: > 100 µM (inactive)
[14]
  GI50: > 100 µM (inactive)
[15]
  GI50: > 100 µM (inactive)
[16]
  GI50: > 100 µM (inactive)
[17]
  GI50: > 100 µM (inactive)
[18]
  GI50: > 10 µM (inactive)
[19]
  GI50: > 100 µM (inactive)
[20]
  GI50: > 100 µM
[21]
  GI50: > 100 µM (inactive)
[22]
  GI50: > 100 µM (inactive)
[23]
  GI50: > 100 µM (inactive)
[24]
  GI50: > 100 µM (inactive)
[25]
  GI50: > 100 µM (inactive)
[26]
  GI50: > 100 µM (inactive)
[27]
  GI50: > 100 µM (inactive)
[28]
  GI50: > 100 µM (inactive)
[29]
  GI50: > 100 µM (inactive)
[30]
  GI50: > 100 µM (inactive)
[31]
  GI50: > 100 µM (inactive)
[32]
  GI50: > 100 µM (inactive)
[33]
  GI50: > 100 µM (inactive)
[34]
  GI50: > 100 µM (inactive)
[35]
  GI50: > 100 µM (inactive)
[36]
  GI50: > 100 µM (inactive)
[37]
  GI50: > 100 µM (inactive)
[38]
  GI50: > 100 µM (inactive)
[39]
  GI50: > 100 µM (inactive)
[40]
  GI50: > 100 µM (inactive)
[41]
  GI50: > 100 µM (inactive)
[42]
  GI50: > 100 µM (inactive)
[43]
  GI50: > 100 µM (inactive)
[44]
  GI50: > 100 µM (inactive)
[45]
  GI50: > 100 µM (inactive)
[46]
  GI50: > 100 µM (inactive)
[47]
  GI50: > 100 µM (inactive)
[48]
  GI50: > 100 µM (inactive)
[49]
  GI50: > 100 µM (inactive)

## C/C(=N/O)C1CC=C(S(=O)(=O)c2ccccc2)C1 (stereo not given)
[1]
  GI50: > 100 µM (inactive)
[2]
  GI50: > 100 µM (inactive)
[3]
  GI50: > 100 µM (inactive)
[4]
  GI50: > 100 µM (inactive)
[5]
  GI50: > 100 µM (inactive)
[6]
  GI50: > 100 µM (inactive)
[7]
  GI50: > 100 µM (inactive)
[8]
  GI50: > 100 µM (inactive)
[9]
  GI50: > 100 µM (inactive)
[10]
  GI50: > 100 µM (inactive)
[11]
  GI50: > 100 µM (inactive)
[50]
  GI50: > 100 µM (inactive)
[12]
  GI50: > 100 µM (inactive)
[51]
  GI50: > 100 µM (inactive)
[13]
  GI50: > 100 µM (inactive)
[14]
  GI50: > 100 µM (inactive)
[15]
  GI50: > 100 µM (inactive)
[16]
  GI50: > 100 µM (inactive)
[17]
  GI50: > 100 µM (inactive)
[18]
  GI50: > 100 µM (inactive)
[20]
  GI50: > 100 µM
[52]
  GI50: > 100 µM (inactive)
[21]
  GI50: > 100 µM (inactive)
[22]
  GI50: > 100 µM (inactive)
[23]
  GI50: > 100 µM (inactive)
[24]
  GI50: > 100 µM (inactive)
[25]
  GI50: > 100 µM (inactive)
[26]
  GI50: > 100 µM (inactive)
[27]
  GI50: > 100 µM (inactive)
[28]
  GI50: > 100 µM (inactive)
[29]
  GI50: > 100 µM (inactive)
[30]
  GI50: > 100 µM (inactive)
[31]
  GI50: > 100 µM (inactive)
[53]
  GI50: > 100 µM (inactive)
[32]
  GI50: > 100 µM (inactive)
[33]
  GI50: > 100 µM (inactive)
[34]
  GI50: > 100 µM (inactive)
[35]
  GI50: > 100 µM (inactive)
[36]
  GI50: > 100 µM (inactive)
[37]
  GI50: > 100 µM (inactive)
[54]
  GI50: > 100 µM (inactive)
[40]
  GI50: > 100 µM (inactive)
[41]
  GI50: > 10 µM (inactive)
[42]
  GI50: > 100 µM (inactive)
[43]
  GI50: > 100 µM (inactive)
[44]
  GI50: > 100 µM (inactive)
[45]
  GI50: > 100 µM (inactive)
[46]
  GI50: > 100 µM (inactive)
[48]
  GI50: > 100 µM (inactive)
[49]
  GI50: > 100 µM (inactive)

## Nc1ccn(C2OC(CO)C(O)C2O)c(=O)n1 (stereo not given)
[1]
  GI50: 239 µM (inactive)
[2]
  GI50: 7.98 µM (inactive)
[3]
  GI50: 12.8 µM (inactive)
[4]
  GI50: 0.818 µM (active)
[5]
  GI50: 429 µM (inactive)
[55]
  GI50: 7.45 µM (inactive)
[6]
  GI50: 0.14 µM (active)
[56]
  GI50: 19.8 µM (inactive)
[7]
  GI50: 14.6 µM (inactive)
[8]
  GI50: 191 µM (inactive)
[9]
  GI50: 0.277 µM (active)
[57]
  GI50: 330 µM (inactive)
[10]
  GI50: 0.219 µM (active)
[11]
  GI50: 8.89 µM (inactive)
[50]
  GI50: 1.04 µM (active)
[12]
  GI50: 139 µM (inactive)
[58]
  GI50: > 481 µM (inactive)
[51]
  GI50: 457 µM (inactive)
[13]
  GI50: 120 µM (inactive)
[14]
  GI50: 68.2 µM (inactive)
[15]
  GI50: 0.213 µM (active)
[59]
  GI50: 286 µM (inactive)
[16]
  GI50: 0.514 µM (active)
[17]
  GI50: 0.0885 µM (active)
[60]
  GI50: 1.16 µM (inactive)
[18]
  GI50: 107 µM (inactive)
[61]
  GI50: 0.156 µM (active)
[20]
  GI50: 73.5 µM
[62]
  GI50: 1.74 µM (inactive)
[52]
  GI50: 9.55 µM (inactive)
[63]
  GI50: 434 µM (inactive)
[21]
  GI50: 308 µM (inactive)
[22]
  GI50: 0.203 µM (active)
[23]
  GI50: 468 µM (inactive)
[24]
  GI50: 481 µM (inactive)
[25]
  GI50: 64 µM (inactive)
[26]
  GI50: 1.74 µM (inactive)
[27]
  GI50: 2.38 µM (inactive)
[64]
  GI50: 36.5 µM (inactive)
[65]
  GI50: 18 µM (inactive)
[66]
  GI50: 35.4 µM (inactive)
[28]
  GI50: 6.43 µM (inactive)
[29]
  GI50: 112 µM (inactive)
[30]
  GI50: 30.8 µM (inactive)
[31]
  GI50: 6.15 µM (inactive)
[53]
  GI50: 457 µM (inactive)
[32]
  GI50: 313 µM (inactive)
[33]
  GI50: 337 µM (inactive)
[34]
  GI50: 198 µM (inactive)
[35]
  GI50: 13.8 µM (inactive)
[36]
  GI50: 22.6 µM (inactive)
[37]
  GI50: 467 µM (inactive)
[54]
  GI50: 21.2 µM (inactive)
[38]
  GI50: 0.207 µM (active)
[67]
  GI50: 196 µM (inactive)
[39]
  GI50: 267 µM (inactive)
[40]
  GI50: 0.248 µM (active)
[41]
  GI50: 1.08 µM (active)
[42]
  GI50: > 443 µM (inactive)
[43]
  GI50: 0.0527 µM (active)
[44]
  GI50: 0.0582 µM (active)
[45]
  GI50: 3.15 µM (inactive)
[46]
  GI50: 31.4 µM (inactive)
[47]
  GI50: 0.173 µM (active)
[48]
  GI50: 0.186 µM (active)
[49]
  GI50: 0.23 µM (active)
